Reference: patent US8952024B2, “Herbicidal pyrimidone derivatives” (E I du Pont de Nemours and Company, priority 2009, dated 2015)

Key:
Type in all cases: in vivo
[1] = test system: large crabgrass (Digitaria sanguinalis); experiment: Test A pre-/postemergence plant response
Procedure, shortened: (§1)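 Formulated test chemicals (non-phytotoxic solvent, surfactant) were sprayed onto soil right after planting and simultaneously onto young plants at one to two leaves, 2 to 10 cm tall. Plants stayed in the greenhouse about ten days; injury was then visually scored against untreated controls, from 0 (no effect) to 100 (complete control).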

[2] = test system: giant foxtail (Setaria faberii); experiment: Test A pre-/postemergence plant response
Procedure, shortened: as §1

[3] = test system: morningglory (Ipomoea spp.); experiment: Test A pre-/postemergence plant response
Procedure, shortened: as §1

[4] = test system: barnyardgrass (Echinochloa crus-galli); experiment: Test A pre-/postemergence plant response
Procedure, shortened: as §1

corn (Zea mays) = experiment: Test A pre-/postemergence plant response
Procedure, shortened: as §1

[5] = test system: pigweed (Amaranthus retroflexus); experiment: Test A pre-/postemergence plant response
Procedure, shortened: as §1

[6] = test system: wheat (Triticum aestivum); experiment: Test A pre-/postemergence plant response
Procedure, shortened: as §1

[7] = test system: velvetleaf (Abutilon theophrasti); experiment: Test A pre-/postemergence plant response
Procedure, shortened: as §1

[8] = test system: barnyardgrass (Echinochloa crus-galli); experiment: Test B flooded paddy test; conditions: for Plant response rating, Flood, Barnyardgrass: 250 g ai/ha, flooded paddy test, visual rating on 0 to 100 scale (0 no effect, 100 complete control) after 13 to 15 days; for Plant response rating, Barnyardgrass: Flood (flooded paddy test), 13 to 15 days
Procedure, shortened: (§2)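 Seedlings reaching 2 leaves are flooded 3 cm deep; test material is delivered to that water, which stays at the same depth. Plants remain in a greenhouse 13–15 days and are then scored by eye versus controls from 0 to 100.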

[9] = test system: umbrella sedge (Cyperus difformis); experiment: Test B flooded paddy test; conditions: for Plant response rating, Flood, Sedge, Umbrella: 250 g ai/ha, flooded paddy test, visual rating on 0 to 100 scale (0 no effect, 100 complete control) after 13 to 15 days; for Plant response rating, Sedge, Umbrella: Flood (flooded paddy test), 13 to 15 days
Procedure, shortened: as §2

[10] = test system: ducksalad (Heteranthera limosa); experiment: Test B flooded paddy test; conditions: for Plant response rating, Flood, Ducksalad: 250 g ai/ha, flooded paddy test, visual rating on 0 to 100 scale (0 no effect, 100 complete control) after 13 to 15 days; for Plant response rating, Ducksalad: Flood (flooded paddy test), 13 to 15 days
Procedure, shortened: as §2

rice (Oryza sativa) = experiment: Test B flooded paddy test; conditions: for Plant response rating, Flood, Rice: 250 g ai/ha, flooded paddy test, visual rating on 0 to 100 scale (0 no effect, 100 complete control) after 13 to 15 days; for Plant response rating, Rice: Flood (flooded paddy test), 13 to 15 days
Procedure, shortened: as §2

[11] = Postemergence, 125 g ai/ha, visual injury, 0 to 100 scale (0 no effect, 100 complete control), approx. ten days
[12] = Postemergence, 500 g ai/ha, 0 to 100 scale, 0 = no effect, 100 = complete control, approx. ten days
[13] = Preemergence, 125 g ai/ha, 0 to 100 scale, 0 = no effect, 100 = complete control
[14] = Preemergence, 500 g ai/ha, visual injury, 0 to 100 scale (0 no effect, 100 complete control), approx. ten days
[15] = 31 g ai/ha, scale of 0 to 100 where 0 is no effect and 100 is complete control
[16] = 62 g ai/ha, scale 0 to 100, 0 is no effect, 100 is complete control
[17] = 125 g ai/ha, scale 0 to 100, 0 is no effect, 100 is complete control
[18] = 62 g ai/ha, scale of 0 to 100 where 0 is no effect and 100 is complete control
[19] = Flood, 31 g ai/ha, scale 0 to 100 (0 no effect, 100 complete control)

Cc1ccc(-n2c(-c3ccccc3)ncc(C(=O)C3=C(O)CCCC3=O)c2=O)cc1 [Compound 8]
Crabgrass, Large plant response rating [1, 11]: 80
Plant response rating, Crabgrass, Large [1, 12]: 90
Plant response rating, Crabgrass, Large [1, 13]: 40
Plant response rating, Crabgrass, Large [1, 14]: 100
Foxtail, Giant plant response rating [2, 11]: 90
Plant response rating, Foxtail, Giant [2, 12]: 100
Plant response rating, Foxtail, Giant [2, 13]: 40
Plant response rating, Foxtail, Giant [2, 14]: 90
Morningglory plant response rating [3, 11]: 90
Plant response rating, Morningglory [3, 12]: 100
Plant response rating, Morningglory [3, 13]: 0
Plant response rating, Morningglory [3, 14]: 70
Barnyardgrass plant response rating [4, 11]: 90
Plant response rating, Barnyardgrass [4, 12]: 100
Plant response rating, Barnyardgrass [4, 13]: 10
Plant response rating, Barnyardgrass [4, 14]: 80
Corn plant response rating (corn (Zea mays); [11]): 10
Plant response rating, Corn (corn (Zea mays); [12]): 50
Plant response rating, Corn (corn (Zea mays); [13]): 0
Plant response rating, Corn (corn (Zea mays); [14]): 20
Pigweed plant response rating [5, 11]: 100
Plant response rating, Pigweed [5, 12]: 100
Plant response rating, Pigweed [5, 13]: 90
Plant response rating, Pigweed [5, 14]: 90
Wheat plant response rating [6, 11]: 10
Plant response rating, Wheat [6, 12]: 50
Plant response rating, Wheat [6, 13]: 0
Plant response rating, Wheat [6, 14]: 20
Velvetleaf plant response rating [7, 11]: 100
Plant response rating, Velvetleaf [7, 12]: 100
Plant response rating, Velvetleaf [7, 13]: 50
Plant response rating, Velvetleaf [7, 14]: 90
Plant response rating, Flood, Barnyardgrass [8]: 45
Plant response rating, Barnyardgrass [8, 15]: 0
Plant response rating, Barnyardgrass [8, 16]: 0
Plant response rating, Barnyardgrass [8, 17]: 20
Plant response rating, Flood, Sedge, Umbrella [9]: 95
Plant response rating, Sedge, Umbrella [9, 15]: 30
Plant response rating, Sedge, Umbrella [9, 16]: 65
Plant response rating, Sedge, Umbrella [9, 17]: 85
Plant response rating, Flood, Ducksalad [10]: 90
Plant response rating, Ducksalad [10, 15]: 30
Plant response rating, Ducksalad [10, 16]: 85
Plant response rating, Ducksalad [10, 17]: 85
Plant response rating, Flood, Rice (rice (Oryza sativa)): 50
Plant response rating, Rice (rice (Oryza sativa); [15]): 0
Plant response rating, Rice (rice (Oryza sativa); [16]): 0
Plant response rating, Rice (rice (Oryza sativa); [17]): 15

O=C1CCCC(O)=C1C(=O)c1cnc(-c2ccccc2Br)n(-c2ccccc2)c1=O [Compound 71]
Crabgrass, Large plant response rating [1, 11]: 30
Plant response rating, Crabgrass, Large [1, 12]: 80
Plant response rating, Crabgrass, Large [1, 13]: 10
Plant response rating, Crabgrass, Large [1, 14]: 50
Foxtail, Giant plant response rating [2, 11]: 20
Plant response rating, Foxtail, Giant [2, 12]: 60
Plant response rating, Foxtail, Giant [2, 13]: 0
Plant response rating, Foxtail, Giant [2, 14]: 10
Morningglory plant response rating [3, 11]: 80
Plant response rating, Morningglory [3, 12]: 100
Plant response rating, Morningglory [3, 13]: 0
Plant response rating, Morningglory [3, 14]: 0
Barnyardgrass plant response rating [4, 11]: 0
Plant response rating, Barnyardgrass [4, 12]: 60
Plant response rating, Barnyardgrass [4, 13]: 0
Plant response rating, Barnyardgrass [4, 14]: 0
Corn plant response rating (corn (Zea mays); [11]): 0
Plant response rating, Corn (corn (Zea mays); [12]): 20
Plant response rating, Corn (corn (Zea mays); [13]): 0
Plant response rating, Corn (corn (Zea mays); [14]): 0
Pigweed plant response rating [5, 11]: 70
Plant response rating, Pigweed [5, 12]: 100
Plant response rating, Pigweed [5, 14]: 90
Wheat plant response rating [6, 11]: 0
Plant response rating, Wheat [6, 12]: 0
Plant response rating, Wheat [6, 13]: 0
Plant response rating, Wheat [6, 14]: 0
Velvetleaf plant response rating [7, 11]: 100
Plant response rating, Velvetleaf [7, 12]: 100
Plant response rating, Velvetleaf [7, 13]: 50
Plant response rating, Velvetleaf [7, 14]: 70
Plant response rating, Flood, Barnyardgrass [8]: 0
Plant response rating, Barnyardgrass [8, 18]: 0
Plant response rating, Barnyardgrass [8, 17]: 0
Barnyardgrass plant response rating [8, 19]: 0
Plant response rating, Flood, Sedge, Umbrella [9]: 25
Plant response rating, Sedge, Umbrella [9, 18]: 0
Plant response rating, Sedge, Umbrella [9, 17]: 0
Sedge, Umbrella plant response rating [9, 19]: 0
Plant response rating, Flood, Ducksalad [10]: 0
Plant response rating, Ducksalad [10, 18]: 0
Plant response rating, Ducksalad [10, 17]: 0
Ducksalad plant response rating [10, 19]: 0
Plant response rating, Flood, Rice (rice (Oryza sativa)): 0
Plant response rating, Rice (rice (Oryza sativa); [18]): 0
Plant response rating, Rice (rice (Oryza sativa); [17]): 0
Rice plant response rating (rice (Oryza sativa); [19]): 0
